{"source": "patent US5476953A", "about": "“Biologically active amides containing a bicyclo moiety” (Cornell Research Foundation, Inc., priority 1994, dated 1995)", "key": {"[1]": {"test_system": "HCT116 human colon carcinoma cells", "experiment": "In vitro cytotoxicity, crystal violet assay, HCT116 human colon carcinoma", "assay_type": "cell-based", "details": "HCT-116, inhibition of cell proliferation to 50% of untreated control, 72 hours", "experimental": "Methanolic extract, obtained on thawing about 1 g frozen sponge by immersion in 20 ml methanol, was assessed for in vitro cytotoxicity in HCT116 human colon carcinoma cells using the crystal violet assay as described in Catino, J. J., et al, Cancer Chemothr. Pharmacol. 15: 240-243, 1985. Particularly, cells were plated at 4000 cells/well in 96 well microtiter plates and 24 hours later samples were added and serial diluted. The cells were incubated at 37° C. for 72 hours. The media was then removed and the cells fixed for 10 minutes with 3.7% formaldehyde in 1 X phosphate buffered saline. The fixing solution was removed and the cells stained with a 0.0075% crystal violet solution for 15 minutes. The cells were then allowed to dry. Rough IC50 values (IC50 being the drug concentration required to inhibit cell proliferation to 50% of that of untreated control cells), expressed as a dilution factor from a 2 mg/ml starting concentration, were determined by visual examination, compared to untreated control wells.\nCytotoxicity was assessed for pure Icadamide A and for pure Icadamide B in an HCT116 human colon carcinoma cell line by the crystal violet assay described previously. […] The IC50 is the drug concentration required to inhibit cell proliferation to 50% of that of untreated control cells."}, "P388 mouse leukemia, ip": {"test_system": "P388 mouse leukemia, ip", "experiment": "In vivo antitumor activity against ip implanted P388 mouse leukemia", "experimental": "For evaluation of antitumor activity against P388 mouse leukemia cells, 1 X 10^6 P 388 leukemia cells were implanted in the intraperitoneal (ip) cavity of (BALB/c X DBA/2)F1 (CDF1) or (C57BL/6 X DBA/2)F1 (BDF1) mice according to the procedure as described in Rose, W. C., et al, Cancer Res. 43: 1504-1510 (1983). Icadamide B was dissolved in DMSO and diluted with saline to the desired concentrations. Injection of Icadamide B was by the ip route beginning on the first day after tumor implantation and consecutively every day for five treatments (q1dX5:1). Increases in lifespan were reflected by the median survival time of treated (T) versus control (C) groups for which a % T/C was calculated. A % T/C of ≥125% was considered an active result."}, "[2]": {"test_system": "M109 mouse lung tumor, ip", "experiment": "In vivo antitumor activity against ip implanted M109 mouse lung tumor", "details": "for MST % T/C: qd 1-5, ip, active ≥125%", "experimental": "(§1) For evaluation of antitumor activity versus M109 mouse lung tumors, experiments were begun by implanting 0.5 ml of a 2.0% brei ip or 0.1 ml subcutaneously (sc) in CDF1 mice as described in Rose, W. C., Cancer Treat. Rep. 65: 299-312 (1981). Icadamide B was administered either intraperitoneally (ip), intravenously (iv) or subcutaneously (sc) by alzet pump according to dosage amounts and schedule set forth in Table IV below. Results are expressed as % T/C, i.e., percentage of median survival time of treated (T) versus control (C) groups. A % T/C of ≥125% was considered an active result. Results are also expressed in terms of tumor growth inhibition, particularly the median times for tumors in treated (T) mice to reach a 1 g size minus the median times for control (C) mice to reach a 1 g size, denoted T-C. Tumor weights were interchangeable with tumor size on the basis of 1 mm^3 =1 mg. The activity criterion for T-C is approximately equal to 4 days. Depending on the tumor volume doubling time for M109 tumors in control mice, this amount of delay in tumor growth is consistent with about one log of cell kill."}, "[3]": {"test_system": "M109 mouse lung tumor, sc", "experiment": "In vivo antitumor activity against sc implanted M109 mouse lung tumor", "details": "for MST % T/C: active ≥125%; for T-C: time to 1 g tumor, activity criterion approximately 4 days", "experimental": "as §1"}, "[4]": {"test_system": "asbestos-induced pulmonary squamous cell carcinoma (ASB), ip", "experiment": "In vivo antitumor activity against ip implanted asbestos-induced pulmonary squamous cell carcinoma (ASB)", "set-up": "species or system mouse", "experimental": "(§2) For evaluation of antitumor activity versus the asbestos-induced pulmonary squamous cell carcinoma (ASB), CDF1 mice were implanted either intraperitoneally (ip) or subcutaneously (sc) with 0.5 ml or 0.1 ml of a 2% brei, respectively. […] Results were evaluated on the same basis as described above for M109 mouse lung tumors except that the activity criterion for tumor growth inhibition was a T-C of ≥6 days."}, "[5]": {"test_system": "asbestos-induced pulmonary squamous cell carcinoma (ASB), sc", "experiment": "In vivo antitumor activity against sc implanted asbestos-induced pulmonary squamous cell carcinoma (ASB)", "set-up": "species or system mouse", "experimental": "as §2"}, "[6]": {"details": "a) 0.020 mg/kg/inj, d. 1, 4 & 7, iv"}, "[7]": {"details": "b) 0.128 mg/kg/inj, d. 1, 3, 5, 7 & 9, iv"}, "[8]": {"details": "e) 0.032-0.0537 mg/kg daily, qd 4-10, subcutaneously implanted Alzet pump (scap)"}}, "note": "Several values for one entry are separate records, joined by “and”; a condition that tells them apart may be missing. Identical values can stand only once."}
{"smiles": "C=C1CC(OC)(C(O)C(=O)NC2OCOC3C2OC(CC(O)/C=C/CCCCCCO)C(C)(C)C3OC)OC(C)C1C", "note": "(centres unmarked) [Icadamide B]", "values": [{"measurement": "IC50", "setting": "[1]", "result": 0.17, "unit": "nM"}, {"measurement": "MST % T/C", "setting": "P388 mouse leukemia, ip; 0.016 mg/kg/inj, qd 1-5, ip; two separate experiments a) and b), active ≥125%", "result": "181% and 143%"}, {"measurement": "activity (in words)", "setting": "P388 mouse leukemia, ip; ip implanted P388", "result": "good activity"}, {"measurement": "increase in lifespan", "setting": "P388 mouse leukemia, ip; maximally tolerated dose, ip, two separate experiments", "result": "43% and 81%"}, {"measurement": "MST % T/C", "setting": "[2]; a) 0.016 mg/kg/inj", "result": 163, "unit": "%"}, {"measurement": "MST % T/C", "setting": "[2]; b) 0.008 mg/kg/inj", "result": 150, "unit": "%"}, {"measurement": "activity (in words)", "setting": "[2]; ip implanted M109", "result": "good activity"}, {"measurement": "increase in lifespan", "setting": "[2]; maximally tolerated doses, ip", "result": "63% and 50%"}, {"measurement": "MST % T/C", "setting": "[3]; [6]", "result": 135, "unit": "%"}, {"measurement": "T-C", "setting": "[3]; [6]", "result": -0.3, "unit": "days"}, {"measurement": "MST % T/C", "setting": "[3]; [7]", "result": 97, "unit": "%"}, {"measurement": "T-C", "setting": "[3]; [7]", "result": 0, "unit": "days"}, {"measurement": "MST % T/C", "setting": "[3]; c) 0.016 mg/kg/inj, qd 4-8, iv", "result": 119, "unit": "%"}, {"measurement": "T-C", "setting": "[3]; c) 0.016 mg/kg/inj, qd 4-8, iv", "result": 0.3, "unit": "days"}, {"measurement": "MST % T/C", "setting": "[3]; d) 0.013 mg/kg/inj, qd 4-8, ip", "result": 109, "unit": "%"}, {"measurement": "T-C", "setting": "[3]; d) 0.013 mg/kg/inj, qd 4-8, ip", "result": 2.5, "unit": "days"}, {"measurement": "MST % T/C", "setting": "[3]; [8]", "result": 102, "unit": "%"}, {"measurement": "T-C", "setting": "[3]; [8]", "result": 3.3, "unit": "days"}, {"measurement": "increase in lifespan (in words)", "setting": "[3]; sc implanted M109", "result": "marginal increases in lifespan"}, {"measurement": "tumor growth delay (in words)", "setting": "[3]; sc implanted M109", "result": "negligible tumor growth delays"}, {"measurement": "MST % T/C", "setting": "[4]; 0.008 mg/kg/inj, qd 4-8, ip, active ≥125%", "result": 121, "unit": "%"}, {"measurement": "activity (in words)", "setting": "[4]; ip implanted ASB", "result": "poor activity"}, {"measurement": "MST % T/C", "setting": "[5]; 0.032/0.128 mg/kg/inj, qd 4-8, iv, active ≥125%", "result": 129, "unit": "%"}, {"measurement": "T-C", "setting": "[5]; 0.032/0.128 mg/kg/inj, qd 4-8, iv, time to 1 g tumor, activity criterion ≥6 days", "result": "3.0 days and 3 days"}, {"measurement": "distal site activity (in words)", "setting": "[5]; sc implanted ASB", "result": "little distal site activity"}]}
{"smiles": "C=C1CC(OC)(C(O)C(=O)NC2OCOC3C2OC(CC(O)/C=C/C/C=C/C=C/C(=O)NC(CCCNC(=N)N)C(=O)O)C(C)(C)C3OC)OC(C)C1C", "note": "(centres unmarked) [Icadamide A]", "values": [{"measurement": "IC50", "setting": "[1]", "result": 63, "unit": "nM"}]}
